Test results reported in the supplement of paper PMC10307832.

Compound: C1CC(C2=C(C1)C3=C(N2)C=CC(=C3)Cl)C(=O)N [Selisistat] + O=C(c1cc(Cc2n[nH]c(=O)c3ccccc23)ccc1F)N1CCN(C(=O)C2CC2)CC1 [Olaparib] (partner 8 µM)
Assay: relative viability (nuclei count vs DMSO), 5 days (fraction); higher = more cells survive
Settings: first compound 40 µM
In short: (§1)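 Relative viability is defined as nuclei in treated wells over nuclei in vehicle wells. Duplicate plates were run and medians reported. Lung cancer cell lines in 1536-well plates were dosed by pin tool one day after seeding, with one drug or with a fixed anchor-drug dose plus five library-drug doses (not always all listed) in √10 steps, and nuclei were counted after 5 days.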

Q: How did the relative viability turn out when CAL-12T was run?
A: 0.769

Q: For NCI-H2228, which relative viability is on record?
A: 0.702

Q: NCI-H2023 was tested. Which relative viability did it give?
A: 0.435

Compound: c1ccc2c(CCNc3ccc(Nc4ccncc4)cc3)c[nH]c2c1 [Serdemetan] + Nc1ncn([C@H]2C[C@H](O)[C@@H](CO)O2)c(=O)n1 [Decitabine] (partner 2 µM)
Assay: as above
Settings: first compound 0.04 µM
In short: as §1

Q: With NCI-H522 as the cell line, how does the relative viability read?
A: 0.677

Q: For NCI-H727, which relative viability is on record?
A: 0.849

Q: Which relative viability does the source give for NCI-H1650 here?
A: 0.408

Q: Which relative viability does the source give for NCI-H1993 here?
A: 0.696

Q: For SW 1573, which relative viability is on record?
A: 0.484

Q: For NCI-H838, which relative viability is on record?
A: 0.437

Q: With LCLC-103H as the cell line, how does the relative viability read?
A: 0.73

Q: How did the relative viability turn out when NCI-H520 was run?
A: 0.44

Q: NCI-H2126 was tested. Which relative viability did it give?
A: 0.623

Q: EMC-BAC-2 was tested. Which relative viability did it give?
A: 0.882

Q: With NCI-H2085 as the cell line, how does the relative viability read?
A: 0.541

Q: With HCC-366 as the cell line, how does the relative viability read?
A: 0.209

Q: For NCI-H1666, which relative viability is on record?
A: 0.798

Q: Which relative viability does the source give for NCI-H596 here?
A: 0.965

Q: Which relative viability does the source give for LK-2 here?
A: 0.37

Q: With NCI-H2087 as the cell line, how does the relative viability read?
A: 0.285

Q: NCI-H2342 was tested. Which relative viability did it give?
A: 0.753

Q: With SK-MES-1 as the cell line, how does the relative viability read?
A: 0.327

Q: How did the relative viability turn out when H3255 was run?
A: 0.546

Q: How did the relative viability turn out when COR-L23 was run?
A: 0.4

Q: With COR-L 105 as the cell line, how does the relative viability read?
A: 0.65

Q: LOU-NH91 was tested. Which relative viability did it give?
A: 0.813

Q: Which relative viability does the source give for ChaGo-K-1 here?
A: 0.488

Q: How did the relative viability turn out when NCI-H2170 was run?
A: 0.419

Q: Which relative viability does the source give for NCI-H2405 here?
A: 0.707

Q: For A549, which relative viability is on record?
A: 0.263

Q: Which relative viability does the source give for SW 900 here?
A: 0.398

Q: For NCI-H2009, which relative viability is on record?
A: 0.373

Q: NCI-H661 was tested. Which relative viability did it give?
A: 0.543

Q: How did the relative viability turn out when SK-LU-1 was run?
A: 0.581

Q: How did the relative viability turn out when NCI-H2023 was run?
A: 0.206

Same assay, conditions: first compound 0.1265 µM

Q: How did the relative viability turn out when NCI-H522 was run?
A: 0.775

Q: NCI-H727 was tested. Which relative viability did it give?
A: 0.797

Q: How did the relative viability turn out when NCI-H1650 was run?
A: 0.435

Q: How did the relative viability turn out when NCI-H1993 was run?
A: 0.593

Q: SW 1573 was tested. Which relative viability did it give?
A: 0.522

Q: NCI-H838 was tested. Which relative viability did it give?
A: 0.459

Q: With LCLC-103H as the cell line, how does the relative viability read?
A: 0.663

Q: Which relative viability does the source give for NCI-H520 here?
A: 0.481

Q: How did the relative viability turn out when NCI-H2126 was run?
A: 0.583

Q: With EMC-BAC-2 as the cell line, how does the relative viability read?
A: 0.912

Q: NCI-H2085 was tested. Which relative viability did it give?
A: 0.582

Q: Which relative viability does the source give for HCC-366 here?
A: 0.154

Q: For NCI-H1666, which relative viability is on record?
A: 0.657

Q: How did the relative viability turn out when NCI-H596 was run?
A: 0.94

Q: LK-2 was tested. Which relative viability did it give?
A: 0.29

Q: NCI-H2087 was tested. Which relative viability did it give?
A: 0.23

Q: With NCI-H2342 as the cell line, how does the relative viability read?
A: 0.776

Q: SK-MES-1 was tested. Which relative viability did it give?
A: 0.368

Q: How did the relative viability turn out when H3255 was run?
A: 0.588

Q: Which relative viability does the source give for COR-L23 here?
A: 0.443

Q: For COR-L 105, which relative viability is on record?
A: 0.646

Q: Which relative viability does the source give for LOU-NH91 here?
A: 0.845

Q: With ChaGo-K-1 as the cell line, how does the relative viability read?
A: 0.42

Q: With NCI-H2170 as the cell line, how does the relative viability read?
A: 0.497

Q: Which relative viability does the source give for NCI-H2405 here?
A: 0.766

Q: A549 was tested. Which relative viability did it give?
A: 0.245

Q: For SW 900, which relative viability is on record?
A: 0.473

Q: Which relative viability does the source give for NCI-H1648 here?
A: 0.533

Q: How did the relative viability turn out when NCI-H2009 was run?
A: 0.37

Q: Which relative viability does the source give for NCI-H661 here?
A: 0.533

Q: With SK-LU-1 as the cell line, how does the relative viability read?
A: 0.58

Q: How did the relative viability turn out when NCI-H2023 was run?
A: 0.21

Same assay, conditions: first compound 0.4 µM

Q: For NCI-H522, which relative viability is on record?
A: 0.68

Q: NCI-H727 was tested. Which relative viability did it give?
A: 0.828

Q: How did the relative viability turn out when NCI-H1650 was run?
A: 0.411

Q: How did the relative viability turn out when NCI-H1993 was run?
A: 0.542

Q: With SW 1573 as the cell line, how does the relative viability read?
A: 0.427

Q: For NCI-H838, which relative viability is on record?
A: 0.404

Q: For LCLC-103H, which relative viability is on record?
A: 0.426

Q: NCI-H520 was tested. Which relative viability did it give?
A: 0.57

Q: Which relative viability does the source give for NCI-H2126 here?
A: 0.612

Q: Which relative viability does the source give for EMC-BAC-2 here?
A: 0.972

Q: With NCI-H2085 as the cell line, how does the relative viability read?
A: 0.485

Q: HCC-366 was tested. Which relative viability did it give?
A: 0.0922

Q: With NCI-H1666 as the cell line, how does the relative viability read?
A: 0.652

Q: Which relative viability does the source give for NCI-H596 here?
A: 0.772

Q: Which relative viability does the source give for LK-2 here?
A: 0.274

Q: How did the relative viability turn out when NCI-H2087 was run?
A: 0.251

Q: How did the relative viability turn out when NCI-H2342 was run?
A: 0.643

Q: How did the relative viability turn out when SK-MES-1 was run?
A: 0.397

Q: How did the relative viability turn out when COR-L23 was run?
A: 0.435

Q: For COR-L 105, which relative viability is on record?
A: 0.574

Q: With ChaGo-K-1 as the cell line, how does the relative viability read?
A: 0.421

Q: For NCI-H2170, which relative viability is on record?
A: 0.437

Q: For NCI-H2405, which relative viability is on record?
A: 0.756

Q: A549 was tested. Which relative viability did it give?
A: 0.261

Q: For SW 900, which relative viability is on record?
A: 0.433

Q: How did the relative viability turn out when NCI-H1648 was run?
A: 0.424

Q: Which relative viability does the source give for NCI-H2009 here?
A: 0.431

Q: With NCI-H661 as the cell line, how does the relative viability read?
A: 0.533

Q: Which relative viability does the source give for SK-LU-1 here?
A: 0.691

Q: For NCI-H2023, which relative viability is on record?
A: 0.225

Same assay, conditions: first compound 1.265 µM

Q: NCI-H522 was tested. Which relative viability did it give?
A: 0.691

Q: For NCI-H727, which relative viability is on record?
A: 0.965

Q: How did the relative viability turn out when NCI-H1650 was run?
A: 0.422

Q: How did the relative viability turn out when NCI-H1993 was run?
A: 0.577

Q: For SW 1573, which relative viability is on record?
A: 0.249

Q: For NCI-H838, which relative viability is on record?
A: 0.386

Q: Which relative viability does the source give for LCLC-103H here?
A: 0.587

Q: How did the relative viability turn out when NCI-H520 was run?
A: 0.4

Q: NCI-H2126 was tested. Which relative viability did it give?
A: 0.451

Q: How did the relative viability turn out when EMC-BAC-2 was run?
A: 0.879

Q: How did the relative viability turn out when NCI-H2085 was run?
A: 0.324

Q: With HCC-366 as the cell line, how does the relative viability read?
A: 0.0502

Q: How did the relative viability turn out when NCI-H1666 was run?
A: 0.645

Q: For NCI-H596, which relative viability is on record?
A: 0.636

Q: With LK-2 as the cell line, how does the relative viability read?
A: 0.223

Q: NCI-H2087 was tested. Which relative viability did it give?
A: 0.145

Q: For NCI-H2342, which relative viability is on record?
A: 0.531

Q: Which relative viability does the source give for SK-MES-1 here?
A: 0.33

Q: With H3255 as the cell line, how does the relative viability read?
A: 0.569

Q: With COR-L23 as the cell line, how does the relative viability read?
A: 0.39

Q: How did the relative viability turn out when COR-L 105 was run?
A: 0.52

Q: For ChaGo-K-1, which relative viability is on record?
A: 0.266

Q: With NCI-H2170 as the cell line, how does the relative viability read?
A: 0.417

Q: For NCI-H2405, which relative viability is on record?
A: 0.674

Q: Which relative viability does the source give for A549 here?
A: 0.291

Q: With SW 900 as the cell line, how does the relative viability read?
A: 0.331

Q: For NCI-H1648, which relative viability is on record?
A: 0.3

Q: Which relative viability does the source give for NCI-H2009 here?
A: 0.328

Q: How did the relative viability turn out when NCI-H661 was run?
A: 0.473

Q: How did the relative viability turn out when SK-LU-1 was run?
A: 0.393

Q: With NCI-H2023 as the cell line, how does the relative viability read?
A: 0.135

Same assay, conditions: first compound 4 µM

Q: For NCI-H522, which relative viability is on record?
A: 0.613

Q: NCI-H727 was tested. Which relative viability did it give?
A: 0.826

Q: Which relative viability does the source give for NCI-H1650 here?
A: 0.266

Q: NCI-H1993 was tested. Which relative viability did it give?
A: 0.56

Q: For SW 1573, which relative viability is on record?
A: 0.219

Q: Which relative viability does the source give for NCI-H838 here?
A: 0.451

Q: How did the relative viability turn out when LCLC-103H was run?
A: 0.687

Q: With NCI-H520 as the cell line, how does the relative viability read?
A: 0.335

Q: For NCI-H2126, which relative viability is on record?
A: 0.519

Q: Which relative viability does the source give for EMC-BAC-2 here?
A: 0.823

Q: For NCI-H2085, which relative viability is on record?
A: 0.374

Q: For HCC-366, which relative viability is on record?
A: 0.0773

Q: How did the relative viability turn out when NCI-H1666 was run?
A: 0.697

Q: Which relative viability does the source give for NCI-H596 here?
A: 0.588

Q: Which relative viability does the source give for LK-2 here?
A: 0.283

Q: With NCI-H2087 as the cell line, how does the relative viability read?
A: 0.135

Q: How did the relative viability turn out when NCI-H2342 was run?
A: 0.475

Q: With SK-MES-1 as the cell line, how does the relative viability read?
A: 0.281

Q: How did the relative viability turn out when H3255 was run?
A: 0.42

Q: COR-L23 was tested. Which relative viability did it give?
A: 0.353

Q: Which relative viability does the source give for COR-L 105 here?
A: 0.626

Q: Which relative viability does the source give for LOU-NH91 here?
A: 0.872

Q: How did the relative viability turn out when ChaGo-K-1 was run?
A: 0.303

Q: NCI-H2170 was tested. Which relative viability did it give?
A: 0.361

Q: With NCI-H2405 as the cell line, how does the relative viability read?
A: 0.625

Q: How did the relative viability turn out when A549 was run?
A: 0.198

Q: For SW 900, which relative viability is on record?
A: 0.284

Q: With NCI-H1648 as the cell line, how does the relative viability read?
A: 0.302

Q: NCI-H2009 was tested. Which relative viability did it give?
A: 0.345

Q: How did the relative viability turn out when NCI-H661 was run?
A: 0.469

Q: Which relative viability does the source give for SK-LU-1 here?
A: 0.593

Q: For NCI-H2023, which relative viability is on record?
A: 0.138
